Test results as given in patent US9546194B2, “Aminosteroids for the treatment of a PTP1B associated disease” (Ohr Pharmaceutical Inc., priority 2012, dated 2017).

Legend:
full length TCPTP = target: T1, full length TCPTP (Homo sapiens, UniProt P17706); test: Inhibition of TCPTP (pNPP hydrolysis, same manner as PTP1B assay); assay type: biochemical; details: 200 μM inhibitor; pNPP substrate; read-out: TCPTP % Inhib. at (200 μM)
T1 construct: except full length TCPTP was used as the enzyme
T1 sequence (P17706 1-415): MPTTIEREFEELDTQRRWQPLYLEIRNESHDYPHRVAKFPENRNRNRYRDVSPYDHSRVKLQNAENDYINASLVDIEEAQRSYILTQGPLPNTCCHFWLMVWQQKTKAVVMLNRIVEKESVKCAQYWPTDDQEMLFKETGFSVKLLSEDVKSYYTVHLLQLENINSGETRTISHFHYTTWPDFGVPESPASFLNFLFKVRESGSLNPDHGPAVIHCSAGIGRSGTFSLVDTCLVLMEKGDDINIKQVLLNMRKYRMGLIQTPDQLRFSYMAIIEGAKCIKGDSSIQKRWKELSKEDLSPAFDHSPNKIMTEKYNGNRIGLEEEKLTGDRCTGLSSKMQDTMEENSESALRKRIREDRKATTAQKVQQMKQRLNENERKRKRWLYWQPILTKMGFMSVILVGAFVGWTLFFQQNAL
Procedure: (§1) The aminosteroid analogues were tested for inhibition against the commercially available full length tyrosine phosphatase PTP1B. The ability of each analogue to inhibit the activity of PTP1B was measured in the presence of 5 μM of the aminosteroid analogue. The assay uses para-nitro-phenyl phosphate (pNPP), a non-specific substrate to assess phosphatase activity. Phosphatase activity was based on the ability of PTP1B to catalyze the hydrolysis of pNPP to p-nitrophenol (pNP).
The aminosteroid analogues were also tested for their ability to inhibit the tyrosine phosphatase TCPTP as an indication of their potential toxicity by the inhibition of the immune response. The TCPTP inhibition assay was done in the same manner as the PTP1B assay except full length TCPTP was used as the enzyme and the inhibitor was at a concentration of 200 μM. The results of the TCPTP inhibition assays are shown in Table 1, column 4 and show three compounds that inhibit TCPTP less than 50% even at a […] greater concentration.

[1] = target: T2, full length tyrosine phosphatase PTP1B (Homo sapiens, UniProt P18031); test: Inhibition of PTP1B (pNPP hydrolysis, absorbance at 405 nm); assay type: biochemical; details: 5 μM aminosteroid analogue; pNPP substrate; read-out: PTP1B % Inhib. at (5 μM)
T2 construct: purchased
T2 sequence (P18031 1-435): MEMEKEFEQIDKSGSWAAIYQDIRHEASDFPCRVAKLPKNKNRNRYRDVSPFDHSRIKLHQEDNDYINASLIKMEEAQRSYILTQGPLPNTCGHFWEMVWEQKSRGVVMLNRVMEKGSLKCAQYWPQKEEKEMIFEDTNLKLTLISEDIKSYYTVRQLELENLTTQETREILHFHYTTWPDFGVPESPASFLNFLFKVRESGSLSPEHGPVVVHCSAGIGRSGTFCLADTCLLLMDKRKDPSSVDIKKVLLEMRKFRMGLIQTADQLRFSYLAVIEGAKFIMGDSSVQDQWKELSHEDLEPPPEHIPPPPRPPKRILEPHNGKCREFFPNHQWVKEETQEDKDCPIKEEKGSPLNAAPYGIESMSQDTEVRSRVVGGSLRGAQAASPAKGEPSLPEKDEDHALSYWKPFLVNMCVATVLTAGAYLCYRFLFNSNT
Procedure: as §1

[2] = Body weight change in ob/ob mouse; assay type: in vivo; details: ob/ob mice; 5 or 10 mg/kg ip every 3 days, 4 doses; % change in body weight vs study day 0, up to 30 days
Procedure: (§2) To determine in vivo efficacy of the aminosteroid analogues an ob/ob (Lep^ob) mouse model was used. Ob/ob mice are extensively used for screening of antidiabetic and/or anti-obesity agents. Ob/ob mice were treated with either saline or 5 or 10 mg/kg aminosteroid analogue every 3 days for a total of 4 doses via ip injection. Body weight, glucose tolerance and fasting blood glucose levels were measured for each group during the study. Each group had at least an N of 4 animals. All reagents and lab animals are commercially available.
Starting at study day 0, body weight measurements were taken every day for each group for up to 30 days. Percent change in body weight was calculated as the fractional response of body weight on study day X over the original body weight on study day 0.

ob/ob (Lep^ob) mouse [3] = test: Fasting blood glucose (FBG) in ob/ob mouse; assay type: in vivo; details: ob/ob mice; 5 or 10 mg/kg ip every 3 days, 4 doses; study day 14 after overnight fast
Procedure: as §2
On study day 13, all animal groups were fasted overnight. On study day 14, 25 μL of whole blood was collected and analyzed for the glucose level (mg/dL) using a glucose analyzer.

ob/ob (Lep^ob) mouse [4] = test: Oral glucose tolerance test (OGTT) in ob/ob mouse; assay type: in vivo; details: ob/ob mice; for change in vivo: Mus musculus, 336 h, 5 or 10 mg/kg ip every 3 days, 4 doses, OGTT study day 14, 1.5 g/kg oral glucose, 0-120 min, read-out: AbAUC % Change From Saline; for reduction in AbAUC compared to saline control (significance): OGTT study day 14, p<0.05
Procedure: as §2
On study day 14, an oral glucose tolerance test (OGTT) was performed to assess glucose tolerance. At time 0, an oral glucose challenge (1.5 g/kg) was administered by oral gavage. At time points 0, 15, 30, 60, 90, and 120 min post glucose load, 25 μl of whole blood was withdrawn from the tail vein of the animal and the glucose level was measured using a glucose analyzer. The glucose concentration vs time was plotted and the above baseline area under the curve (AbAUC) of the glucose excursion time curve was determined using trapezoidal rule analyses.

Row | SMILES | inhibition at 200 µM (full length TCPTP) [%] | inhibition at 5 µM [1] [%] | % BW Nader [2] [%] | FBG % Change From Saline (ob/ob (Lep^ob) mouse [3]) [%] | change in vivo (ob/ob (Lep^ob) mouse [4]) [%] | reduction in AbAUC compared to saline control (significance) (ob/ob (Lep^ob) mouse [4])
1 | COC(=O)CC[C@@H](C)[C@H]1CCC2C3CC[C@@H]4C[C@H](NCc5ccccn5)CC[C@]4(C)C3C[C@H](O)[C@@]21C (stereo partly shown) [MSI-2512] | -2 | 90 | 0.4 | 45.8 | -5.8 | –
2 | COC(=O)CC[C@@H](C)[C@H]1CCC2C3C[C@@H](O)[C@H]4C[C@H](NCCNC(C)C)CC[C@]4(C)C3CC[C@@]21C (stereo partly shown) [MSI-2514] | 30 | 96 | −1.5 | 9.2 | -11.6 | –
3 | COC(=O)CC[C@@H](C)[C@H]1CCC2C3C(CC[C@@]21C)[C@@]1(C)CC[C@H](NCCCCNCc2cccnc2)C[C@@H]1C[C@H]3O (stereo partly shown) [MSI-2511] | 0 | 93 | −0.9 | 5.1 | -34.6 | significant reduction
4 | COC(=O)CC[C@@H](C)[C@H]1CCC2C3C(CC[C@@]21C)[C@@]1(C)CC[C@@H](NCCN2CCCCC2)C[C@H]1C[C@H]3O (stereo partly shown) [MSI-2507] | -11 | 94 | 1.4 | −9.4 | -45.8 | significant reduction
